The values that follow are results of earlier work, collected in paper PMC7559897, “Designed Antimicrobial Peptides Against Trauma-Related Cutaneous Invasive Fungal Wound Infections” (Journal of Fungi, 2020).

This series concerns P. aeruginosa. The following applies: subinhibitory concentrations, growth at higher concentrations; cited from earlier work. From the text:
The rapid destruction of pathogenic cells by dAMPs infers a theoretical reduced likelihood of developing bacterial resistance. However, to confirm this, dAMPs were serially passaged against Candida and against both P. aeruginosa and S. aureus at subinhibitory concentrations to ascertain whether resistance, assessed by growth at higher concentrations, occurs. Resistance was not observed.

Consider `CNC(C)C1CCC(N)C(OC2C(N)CC(N)C(OC3OCC(C)(O)C(NC)C3O)C2O)O1` (stereo not shown) [Gentamicin], for which the “resistance during serial passaging against P. aeruginosa” value is on record as “strong resistance”.
